Measurements: US6335320B1, “Method of treating fibrotic conditions” (UCB S.A., priority 1998, dated 2002)
No end group written: not given here.

Columns and labels:
[1] = test system: anti-alpha SM-1; conditions: cited from earlier work
[2] = test system: SM cells; conditions: culture of SM cells, microinjection; cited from earlier work
[3] = test system: splinted wound; experiment: Open splinted wound contraction model in rats; assay type: in vivo, rat; conditions: topical
From the text: Test upon an open “splinted Wound” in Rats
In order to measure exclusively contraction, the inventors have developed the “splinted wound” model, based upon the technique of Gabbiani G. et al., J. of Exp.
The wound 2×2 cm in the back of the rat is fixed by suturing its margins to a plastic frame using suture thread (Supramid, metric 3, Braun, Emmenbrücke) on day 0. […] The peptidic product is applied on the open wound starting at the 7th day usually for 3 days and releases the suture of the frame, thus allowing an accelerated contraction which in controls reduces the area of the wound of about ⅔ within 48 hours.
We have measured morphometrically the contraction of the wound (5 rats per group) by means of planimetry (KS 400, Zeiss Vision) and studied the tissues morphologically by means of histological techniques, immunofluorescence with the α-SM actin antibody according to a method described in Gabbiani et al., J. Exp. Med. 1972 (p.15, line 8) and Darby et al. Lab. Invest. 1990 (p.1, line 24-25).
Table 3 presents the wound size (surface in cm^2) measured on day 3 as a percentage of the wound size measured on day 0.
The rats were treated with the peptidic product of example 1 at a dose of 3 mg/ml (mg of peptidic product, ml of 0.9% NaCl).

[4] = test system: α-SM actin; experiment: Effect on α-SM actin biosynthesis (S35 methionine incorporation) in VSMC; assay type: cell-based, rat; conditions: for α-SM actin synthesis, control standardised at 100%: 2 mg/ml, VSMC, 37° C.
Description: In this table, the values of the control conditions were standardised at a 100% starting value (time=0 hour).

For “AcEEEDSTALVC (Ac-EEEDSTALVC) [amino terminal decapeptide of α-SM actin]”, the “blocking effects on the binding of monoclonal antibody anti-alpha SM-1” value [1] is given as “blocking effects”.
In the case of “Acetyl-glutamyl-glutamyl-glutamyl-aspartyl (Ac-EEED) [AcEEED]”, the “incorporation of α-SM actin into stress fibers” value [2] is given as “inhibits the incorporation of α-SM actin into stress fibers”.
With “ε-(Acetyl Glu Glu Glu Asp) Lys Arg Gln Ile Lys Ile Trp Phe Gln Asn Arg Arg Met Lys Trp Lys Lys OH [example 1, ε-(AcEEED)-K-(pAntp[43-58])]” the “contractile activity of the wound” value ([3]; 3 mg/ml) was “decrease in contractile activity”, the “Wound surface: wound size on day 3 as a percentage of the wound size on day 0” value ([3]; 3 mg/ml in 0.9% NaCl, 5 rats per group) was 48.42 ± 2.02% and the “α-SM actin synthesis, control standardised at 100%” value (shortened to “α-SM actin synthesis … at 100%”) ([4]; Experiment 1, 20 hours) was 72%. The “α-SM actin synthesis … at 100%” value ([4]; Experiment 2, 20 hours) was 56%, the “α-SM actin synthesis … at 100%” value ([4]; Experiment 3, 20 hours) was 44% and the “α-SM actin synthesis … at 100%” value ([4]; Experiment 4, 20 hours) was 48%. The “α-SM actin synthesis … at 100%” value ([4]; Mean of 4 experiments, 20 hours) was 55% and the “decrease of the α-SM actin synthesis compared to control conditions” value ([4]; mean value for the 4 experiments, 2 mg/ml culture medium) was 55%.
